# Values quoted from earlier work, collected in US10112962B2, “Boron-based prodrug strategy for increased bioavailability and lower-dosage requirements for drug molecules containing at least one phenol (or aromatic hydroxyl) group” (XAVIER UNIVERSITY OF LOUISIANA, priority 2014, dated 2018).
# Key:
# [1] = literature statement
# [2] = literature statement; remark: listed apart in the source
oral bioavailability [1],water solubility [2],Compound
poor oral bioavailability,–,C[C@]12CC[C@@H]3c4ccc(O)cc4C[C@@H](CCCCCCCCC[S+]([O-])CCCC(F)(F)C(F)(F)F)[C@H]3[C@@H]1CC[C@@H]2O (stereo partly shown) [Fulvestrant]
low oral bioavailability,poor water solubility,"O=C(Nc1ccc([N+](=O)[O-])cc1Cl)c1cc(Cl)ccc1O [niclosamide, Niclosamide]"
poor bioavailability,–,"O=C(c1ccc(OCCN2CCCCC2)cc1)c1c(-c2ccc(O)cc2)sc2cc(O)ccc12 [raloxifen, Raloxifene]"
